# Reference: article PMC11585924, “Direct measurements of neurosteroid binding to specific sites on GABAA receptors” (British journal of pharmacology, 2024)
# Molecular target: T1, α1β3 GABAA receptors (Homo sapiens, UniProt P14867+P28472)
# T1 construct: expressed in transfected cells; host or cells: Xenopus laevis oocytes, cRNA injected 5:1 (α1:β3)
# T1 sequence (P14867 28-456): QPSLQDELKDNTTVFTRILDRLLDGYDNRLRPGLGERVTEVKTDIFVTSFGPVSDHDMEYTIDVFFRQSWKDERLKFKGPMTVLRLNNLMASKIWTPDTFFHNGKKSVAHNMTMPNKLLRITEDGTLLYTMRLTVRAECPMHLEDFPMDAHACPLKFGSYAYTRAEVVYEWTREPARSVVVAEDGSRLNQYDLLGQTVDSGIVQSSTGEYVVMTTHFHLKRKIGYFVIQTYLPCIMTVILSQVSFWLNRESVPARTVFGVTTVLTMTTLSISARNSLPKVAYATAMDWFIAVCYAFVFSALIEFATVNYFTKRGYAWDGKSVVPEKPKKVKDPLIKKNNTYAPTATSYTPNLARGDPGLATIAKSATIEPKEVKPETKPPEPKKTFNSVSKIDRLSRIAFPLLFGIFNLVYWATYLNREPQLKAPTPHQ
# T1 sequence (P28472 26-473): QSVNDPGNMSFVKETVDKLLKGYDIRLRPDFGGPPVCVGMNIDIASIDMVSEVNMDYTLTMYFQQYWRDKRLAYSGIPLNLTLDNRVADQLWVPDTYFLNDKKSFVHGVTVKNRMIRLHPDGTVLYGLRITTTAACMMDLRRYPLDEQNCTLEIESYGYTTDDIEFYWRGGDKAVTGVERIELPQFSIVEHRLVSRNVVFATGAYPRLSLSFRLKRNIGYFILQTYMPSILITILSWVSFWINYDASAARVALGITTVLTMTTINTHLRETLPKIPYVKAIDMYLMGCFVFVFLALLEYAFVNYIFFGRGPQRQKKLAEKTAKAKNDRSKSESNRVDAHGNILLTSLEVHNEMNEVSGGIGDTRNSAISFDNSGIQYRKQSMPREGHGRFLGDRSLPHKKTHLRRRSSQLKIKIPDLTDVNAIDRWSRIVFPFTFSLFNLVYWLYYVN
# Experiment: Two-electrode voltage clamp of GABA-elicited currents in Xenopus oocytes
# Format: cell-based
# Settings: low GABA; wild-type α1β3
# Protocol: Receptor expression and electrophysiological recordings were conducted as described in detail previously ([Sugasawa et al., 2020]). In brief, α1β3 GABAA receptors were expressed in oocytes from the African clawed frog (X. laevis). The wild-type α1 and β3 subunits were of human origin (Genbank accession numbers NM_000806.5 and NM_000814.5, respectively). The α1 clone containing the Q-to-L mutation to the classic neurosteroid binding site ([Hosie et al., 2006]) was of rat origin. (The glutamine residue in ELIC-α1GABAAR is Q242, whereas the corresponding residue in rat α1 is Q241. For simplicity, the residue is referred to as Q242 for both rat and ELIC-α1GABAAR.) The oocytes were purchased as quarter ovaries from Xenopus1 (Dexter, MI, USA). Following digestion in 2% w/v (mg·ml^−1) collagenase A, the oocytes were injected with a total of 12 ng cRNA per oocyte in a 5:1 ratio (α1:β3) and incubated at 15°C for 2–3 days prior to electrophysiological recordings in ND96 (96-mM NaCl, 2-mM KCl, 1.8-mM CaCl2, 1-mM MgCl2, 5-mM HEPES; pH 7.4) supplemented with 100 U·ml^−1 penicillin and 100 μg·ml^−1 streptomycin.
# Electrophysiological recordings were conducted at ≈22°C using standard two-electrode voltage clamp. The voltage and current electrodes (G120F-4, OD = 1.20 mm, ID = 0.69 mm; Warner Instruments, Hamden, CT, USA) were filled with 3-M KCl and had resistances of 0.3–1 MΩ. The oocytes were clamped at −60 mV. The chamber (RC-1Z; Warner Instruments) was perfused with ND96 at 5–8 ml·min^−1. Solutions were gravity-applied. The current responses were amplified with an Axoclamp 900A (Molecular Devices, San Jose, CA, USA) or OC-725C amplifier (Warner Instruments), digitized with a Digidata 1200 series digitizer (Molecular Devices) and stored on PC hard drive using pClamp (Molecular Devices; RRID:SCR_011323). Current amplitudes were determined using Clampfit (Molecular Devices).
# A standard experiment consisted of a several-minute long applications of GABA followed immediately by a co-application of GABA + modulator and a wash in GABA. For normalization purposes, each cell was exposed to the combination of saturating (1-mM) GABA + 50-μM propofol, assumed to fully activate all receptors in the cell ([Eaton et al., 2016]).
structure (smiles),measurement,value
"CC(=O)[C@H]1CC[C@H]2[C@@H]3CC[C@H]4C[C@@H](O)CC[C@]4(C)[C@H]3CC[C@]12C [Epi-AlloP, epi-allopregnanolone]",potentiation of GABA-elicited currents,do not
